Source: paper PMC9694544, “Conteltinib (CT-707) in patients with advanced ALK-positive non-small cell lung cancer: a multicenter, open-label, first-in-human phase 1 study” (BMC Medicine, 2022)

System: patients with ALK-positive NSCLC
Assay: Phase 1 safety assessment (TRAEs by CTCAE 4.03, DLT, MTD, RP2D)
Assay type: in vivo, human
Procedure: In the dose-escalation phase, the dose was escalated sequentially from a low to a high level with a 3 + 3 dose-escalation scheme based on the modified Fibonacci method. The starting dose for conteltinib was 50 mg orally quaque die (QD). Dose escalation proceeded to the next six cohorts of 100 mg, 200 mg, 300 mg, 450 mg, 600 mg, and 800 mg QD. For each dose, there was a PK lead-in phase where a single dose was given 7 days before cycle 1 day 1. Then, each dose was taken continuously in a 28-day cycle. The first cycle was for dose-limiting toxicity (DLT) investigation. When one of three patients experienced a DLT in a dose cohort, three additional patients were enrolled in the same dose cohort to assess the dose level in a total of six patients. All patients received conteltinib until disease progression, unacceptable toxicity, or withdrawal of consent. Patients received follow-up safety assessments for 30 days (±7 days) after the last conteltinib dose.
In the dose-expansion phase, each dose was taken continuously in a 28-day cycle. At the end of each cycle, a safety evaluation was conducted. If patients met the criteria to enter the next cycle, treatment with conteltinib was continued for subsequent cycles. All patients received conteltinib until disease progression, unacceptable toxicity, or withdrawal of consent. Patients received follow-up safety assessments for 30 days (±7 days) after the last dose of conteltinib.
The safety of conteltinib was assessed in safety set (SS) which was based on the National Cancer Institute Common Terminology Criteria for Adverse Events (CTCAE) version 4.03, laboratory tests, vital signs, ECG, and clinical observations. […] Adverse events (AEs) were judged to be treatment-related or not by investigators.
DLTs were AEs occurring in the first cycle of treatment (28 days) that were attributed to conteltinib, and the criteria were grade 4 neutropenia lasting ≥ 7 days, febrile neutropenia, grade 3 thrombocytopenia, grade 3 non-hematologic toxicity, and any conteltinib-related toxicity resulting in treatment delay > 2 weeks or discontinuation of conteltinib treatment at the assigned dose level. Besides, grade 3 nausea, vomiting, or diarrhea for ≥ 3 days or grade 4 nausea, vomiting, or diarrhea of any duration was considered as a DLT. The MTD was defined as the dose of conteltinib that would be closest to but not higher than a 33% probability of a DLT.

## COc1cc(N2CCC(N3CCN(C)CC3)CC2)ccc1Nc1nc2c(c(Nc3ccccc3S(=O)(=O)NC(C)C)n1)CCN2 [Conteltinib]
450 mg QD (n=14), Grade 1–2
  TRAE Hypercholesterolemia: 1 (7.1) n (%)
  TRAE Hyperglycemia: 1 (7.1) n (%)
  TRAE Hypertriglyceridemia: 2 (14.3) n (%)
  TRAE Hyperuricemia: 3 (21.4) n (%)
  TRAE Hypoalbuminemia: 2 (14.3) n (%)
  TRAE Nausea: 6 (42.9) n (%)
  TRAE Proteinuria: 1 (7.1) n (%)
  TRAE Serum creatinine elevated: 10 (71.4) n (%)
  TRAE Vomiting: 6 (42.9) n (%)
  TRAE Weight loss: 3 (21.4) n (%)
  TRAE γ-GGT elevated: 3 (21.4) n (%)
450 mg QD (n=14), Grade ≥ 3
  Patients with any TRAE: 3 (21.4) n (%)
  TRAE ALT elevated: 0 (0.0) n (%)
  TRAE AST elevated: 0 (0.0) n (%)
  TRAE Abdominal pain: 0 (0.0) n (%)
  TRAE Abdominal pain upper: 0 (0.0) n (%)
  TRAE Appetite decreased: 0 (0.0) n (%)
  TRAE Conjugated bilirubin elevated: 0 (0.0) n (%)
  TRAE Diarrhea: 0 (0.0) n (%)
  TRAE Hypercholesterolemia: 0 (0.0) n (%)
  TRAE Hyperglycemia: 0 (0.0) n (%)
  TRAE Hypertriglyceridemia: 0 (0.0) n (%)
  TRAE Hyperuricemia: 0 (0.0) n (%)
  TRAE Hypoalbuminemia: 0 (0.0) n (%)
  TRAE Nausea: 0 (0.0) n (%)
  TRAE Proteinuria: 0 (0.0) n (%)
  TRAE Serum creatinine elevated: 0 (0.0) n (%)
  TRAE Vomiting: 0 (0.0) n (%)
  TRAE Weight loss: 0 (0.0) n (%)
  TRAE γ-GGT elevated: 3 (21.4) n (%)
600 mg QD (n=18), Grade 1–2
  Patients with any TRAE: 18 (100) n (%)
  TRAE ALT elevated: 7 (38.9) n (%)
  TRAE AST elevated: 8 (44.4) n (%)
  TRAE Abdominal pain: 7 (38.9) n (%)
  TRAE Abdominal pain upper: 2 (11.1) n (%)
  TRAE Appetite decreased: 7 (38.9) n (%)
  TRAE Conjugated bilirubin elevated: 2 (11.1) n (%)
  TRAE Diarrhea: 16 (88.9) n (%)
  TRAE Hypercholesterolemia: 4 (22.2) n (%)
  TRAE Hyperglycemia: 6 (33.3) n (%)
  TRAE Hypertriglyceridemia: 8 (44.4) n (%)
  TRAE Hyperuricemia: 10 (55.6) n (%)
  TRAE Hypoalbuminemia: 3 (16.7) n (%)
  TRAE Nausea: 9 (50.0) n (%)
  TRAE Proteinuria: 8 (44.4) n (%)
  TRAE Serum creatinine elevated: 8 (44.4) n (%)
  TRAE Vomiting: 11 (61.1) n (%)
  TRAE Weight loss: 8 (44.4) n (%)
  TRAE γ-GGT elevated: 8 (44.4) n (%)
600 mg QD (n=18), Grade ≥ 3
  Patients with any TRAE: 5 (27.8) n (%)
  TRAE ALT elevated: 0 (0.0) n (%)
  TRAE AST elevated: 0 (0.0) n (%)
  TRAE Abdominal pain: 0 (0.0) n (%)
  TRAE Abdominal pain upper: 0 (0.0) n (%)
  TRAE Appetite decreased: 0 (0.0) n (%)
  TRAE Conjugated bilirubin elevated: 0 (0.0) n (%)
  TRAE Diarrhea: 2 (11.1) n (%)
  TRAE Hypercholesterolemia: 0 (0.0) n (%)
  TRAE Hyperglycemia: 0 (0.0) n (%)
  TRAE Hypertriglyceridemia: 0 (0.0) n (%)
  TRAE Hyperuricemia: 0 (0.0) n (%)
  TRAE Hypoalbuminemia: 0 (0.0) n (%)
  TRAE Nausea: 0 (0.0) n (%)
  TRAE Proteinuria: 0 (0.0) n (%)
  TRAE Serum creatinine elevated: 1 (5.6) n (%)
  TRAE Vomiting: 0 (0.0) n (%)
  TRAE Weight loss: 0 (0.0) n (%)
  TRAE γ-GGT elevated: 1 (5.6) n (%)
600 mg QD, cycle 1, dose-escalation phase, grade 3 serum creatinine elevated
  DLT events: One
800 mg QD (n=4), Grade 1–2
  Patients with any TRAE: 3 (75.0) n (%)
  TRAE ALT elevated: 0 (0.0) n (%)
  TRAE AST elevated: 1 (25.0) n (%)
  TRAE Abdominal pain: 3 (75.0) n (%)
  TRAE Abdominal pain upper: 0 (0.0) n (%)
  TRAE Appetite decreased: 1 (25.0) n (%)
  TRAE Conjugated bilirubin elevated: 0 (0.0) n (%)
  TRAE Diarrhea: 3 (75.0) n (%)
  TRAE Hypercholesterolemia: 1 (25.0) n (%)
  TRAE Hyperglycemia: 1 (25.0) n (%)
  TRAE Hypertriglyceridemia: 2 (50.0) n (%)
  TRAE Hyperuricemia: 3 (75.0) n (%)
  TRAE Hypoalbuminemia: 1 (25.0) n (%)
  TRAE Nausea: 1 (25.0) n (%)
  TRAE Proteinuria: 2 (50.0) n (%)
  TRAE Serum creatinine elevated: 2 (50.0) n (%)
  TRAE Vomiting: 2 (50.0) n (%)
  TRAE Weight loss: 2 (50.0) n (%)
  TRAE γ-GGT elevated: 2 (50.0) n (%)
800 mg QD (n=4), Grade ≥ 3
  Patients with any TRAE: 0 (0.0) n (%)
  TRAE ALT elevated: 0 (0.0) n (%)
  TRAE AST elevated: 0 (0.0) n (%)
  TRAE Abdominal pain: 0 (0.0) n (%)
  TRAE Abdominal pain upper: 0 (0.0) n (%)
  TRAE Appetite decreased: 0 (0.0) n (%)
  TRAE Conjugated bilirubin elevated: 0 (0.0) n (%)
  TRAE Diarrhea: 0 (0.0) n (%)
  TRAE Hypercholesterolemia: 0 (0.0) n (%)
  TRAE Hyperglycemia: 0 (0.0) n (%)
  TRAE Hypertriglyceridemia: 0 (0.0) n (%)
  TRAE Hyperuricemia: 0 (0.0) n (%)
  TRAE Hypoalbuminemia: 0 (0.0) n (%)
  TRAE Nausea: 0 (0.0) n (%)
  TRAE Proteinuria: 0 (0.0) n (%)
  TRAE Serum creatinine elevated: 0 (0.0) n (%)
  TRAE Vomiting: 0 (0.0) n (%)
  TRAE Weight loss: 0 (0.0) n (%)
  TRAE γ-GGT elevated: 0 (0.0) n (%)
800 mg QD cohort
  DLTs: No DLTs were observed
64 patients, impaired liver function
  patients with permanent discontinuation due to TRAE: 3.1%
64 patients, serum creatinine elevated and impaired liver function
  patients with TRAEs leading to conteltinib interruption: 6.3%
64 patients, serum creatinine elevated, neutropenia, impaired liver function
  patients with TRAEs leading to dose reduction: 4.7%
SS, 64 patients
  patients with grade ≥ 3 TRAEs: 14.1%
SS, 64 patients, all grades
  TRAE ALT elevated: 34.4%
  TRAE AST elevated: 39.1%
  TRAE Abdominal pain: 26.6%
  TRAE Abdominal pain upper: 17.2%
  TRAE Appetite decreased: 18.75%
  TRAE Conjugated bilirubin elevated: 10.9%
  TRAE Diarrhea: 71.9%
  TRAE Hypercholesterolemia: 12.5%
  TRAE Hyperglycemia: 15.6%
  TRAE Hypertriglyceridemia: 23.4%
  TRAE Hyperuricemia: 31.25%
  TRAE Hypoalbuminemia: 17.2%
  TRAE Nausea: 37.5%
  TRAE Proteinuria: 21.9%
  TRAE Serum creatinine elevated: 45.3%
  TRAE Vomiting: 35.9%
  TRAE Weight loss: 28.1%
  TRAE γ-GGT elevated: 32.8%
  patients with TRAEs: 90.6%
SS, 64 patients, grade ≥ 3
  TRAE Conjugated bilirubin elevated: 1.6%
  TRAE Diarrhea: 3.1%
  TRAE Serum creatinine elevated: 1.6%
  TRAE γ-GGT elevated: 7.8%
Total (n=64), All grade
  Patients with any TRAE: 58 (90.6) n (%)
  TRAE ALT elevated: 22 (34.4) n (%)
  TRAE AST elevated: 25 (39.1) n (%)
  TRAE Abdominal pain: 17 (26.6) n (%)
  TRAE Abdominal pain upper: 11 (17.2) n (%)
  TRAE Appetite decreased: 12 (18.8) n (%)
  TRAE Conjugated bilirubin elevated: 7 (10.9) n (%)
  TRAE Diarrhea: 46 (71.9) n (%)
  TRAE Hypercholesterolemia: 8 (12.5) n (%)
  TRAE Hyperglycemia: 10 (15.6) n (%)
  TRAE Hypertriglyceridemia: 15 (23.4) n (%)
  TRAE Hyperuricemia: 20 (31.3) n (%)
  TRAE Hypoalbuminemia: 11 (17.2) n (%)
  TRAE Nausea: 24 (37.5) n (%)
  TRAE Proteinuria: 14 (21.9) n (%)
  TRAE Serum creatinine elevated: 29 (45.3) n (%)
  TRAE Vomiting: 23 (35.9) n (%)
  TRAE Weight loss: 18 (28.1) n (%)
  TRAE γ-GGT elevated: 21 (32.8) n (%)
Total (n=64), Grade 1–2
  Patients with any TRAE: 58 (90.6) n (%)
  TRAE ALT elevated: 22 (34.4) n (%)
  TRAE AST elevated: 25 (39.1) n (%)
  TRAE Abdominal pain: 17 (26.6) n (%)
  TRAE Abdominal pain upper: 11 (17.2) n (%)
  TRAE Appetite decreased: 12 (18.8) n (%)
  TRAE Conjugated bilirubin elevated: 6 (9.4) n (%)
  TRAE Diarrhea: 44 (68.8) n (%)
  TRAE Hypercholesterolemia: 8 (12.5) n (%)
  TRAE Hyperglycemia: 10 (15.6) n (%)
  TRAE Hypertriglyceridemia: 15 (23.4) n (%)
  TRAE Hyperuricemia: 20 (31.3) n (%)
  TRAE Hypoalbuminemia: 11 (17.2) n (%)
  TRAE Nausea: 24 (37.5) n (%)
  TRAE Proteinuria: 14 (21.9) n (%)
  TRAE Serum creatinine elevated: 28 (43.8) n (%)
  TRAE Vomiting: 23 (35.9) n (%)
  TRAE Weight loss: 18 (28.1) n (%)
  TRAE γ-GGT elevated: 16 (25.0) n (%)
Total (n=64), Grade ≥ 3
  Patients with any TRAE: 9 (14.1) n (%)
  TRAE ALT elevated: 0 (0.0) n (%)
  TRAE AST elevated: 0 (0.0) n (%)
  TRAE Abdominal pain: 0 (0.0) n (%)
  TRAE Abdominal pain upper: 0 (0.0) n (%)
  TRAE Appetite decreased: 0 (0.0) n (%)
  TRAE Conjugated bilirubin elevated: 1 (1.6) n (%)
  TRAE Diarrhea: 2 (3.1) n (%)
  TRAE Hypercholesterolemia: 0 (0.0) n (%)
  TRAE Hyperglycemia: 0 (0.0) n (%)
  TRAE Hypertriglyceridemia: 0 (0.0) n (%)
  TRAE Hyperuricemia: 0 (0.0) n (%)
  TRAE Hypoalbuminemia: 0 (0.0) n (%)
  TRAE Nausea: 0 (0.0) n (%)
  TRAE Proteinuria: 0 (0.0) n (%)
  TRAE Serum creatinine elevated: 1 (1.6) n (%)
  TRAE Vomiting: 0 (0.0) n (%)
  TRAE Weight loss: 0 (0.0) n (%)
  TRAE γ-GGT elevated: 5 (7.8) n (%)
dose-expansion phase
  DLTs: No DLTs were observed
Doses 50 to 800 mg QD
  MTD: not reached
In vivo
  deaths during treatment: No patients died
This study
  rash: 6.25%
  visual effects: 1.6%
